Test results published in patent US9321767B2, “Azabenzimidazoles as respiratory syncytial virus antiviral agents” (JANSSEN SCIENCES IRELAND UC, priority 2010, dated 2016).
Where two headings read alike, the source gives them in different places.

What was measured:
rgRSV224 virus = experiment: microbe, parasite or virus in culture; format: cell-based, respiratory syncytial virus (RSV); settings: read-out: RSV-wt_EC50
Procedure: (§1) Black 96-well clear-bottom microtiter plates (Corning, Amsterdam, The Netherlands) were filled in duplicate using a customized robot system with serial 4-fold dilutions of compound in a final volume of 50 μl culture medium [RPMI medium without phenol red, 10% FBS, 0.04% gentamycin (50 mg/mL) and 0.5% DMSO]. Then, 100 μl of a HeLa cell suspension (5×10^4 cells/mL) in culture medium was added to each well followed by the addition of 50 μl rgRSV224 (MOI=0.02) virus in culture medium using a multidrop dispenser (Thermo Scientific, Erembodegem, Belgium). rgRSV224 virus is an engineered virus that includes an additional GFP gene (Hallak et al, 2000) and was in-licensed from the NIH (Bethesda, Md., USA). Medium, virus- and mock-infected controls were included in each test. Cells were incubated at 37° C. in a 5% CO2 atmosphere. Three days post-virus exposure, viral replication was quantified by measuring GFP expression in the cells by a MSM laser microscope (Tibotec, Beerse, Belgium). The EC50 was defined as the 50% inhibitory concentration for GFP expression. In parallel, compounds were incubated for three days in a set of white 96-well microtitier plates (Corning) and the cytotoxicity of compounds in HeLa cells was determined by measuring the ATP content of the cells using the ATPlite kit (PerkinElmer, Zaventem, Belgium) according to the manufacturer's instructions. The CC50 was defined as the 50% concentration for cytotoxicity.

HeLa cells = experiment: Cytotoxicity in HeLa cells, ATP content (ATPlite kit); format: cell-based
Procedure: as §1

[1] = human respiratory syncytial virus, HeLa, 72 h
[2] = HeLa cells, three days incubation, ATP content

Structure (SMILES)	EC50 (rgRSV224 virus; [1]) [nM]	TOX-HELA_EC50 (HeLa cells; [2]) [µM]	EC50 (rgRSV224 virus; rgRSV224 in HeLa cells, three days post-virus exposure, GFP expression) [nM]	TOX-HELA_EC50 (HeLa cells) [µM]
CC(C)CCn1c(Cn2c(=O)n(C3COC3)c3ccncc32)nc2ncccc21 [Compound 9, 3-((1-isopentyl-1H-imidazo[4,5-b]pyridin-2-yl)methyl)-1-(oxetan-3-yl)-1H-imidazo[4,5-c]pyridin-2(3H)-one]	58.1	>9.836	–	–
COCCCn1c(Cn2c(=O)n(C3CC3)c3ccncc32)nc2ncccc21 [Compound 10]	89.3	4.756	–	–
O=c1n(Cc2nc3ncccc3n2CCCF)c2cnccc2n1C1CC1 [Compound 11]	90.9	>9.836	–	–
COCCCn1c(Cn2c(=O)n(C3COC3)c3ccncc32)nc2ncccc21 [Compound 12, 3-((1-(3-methoxypropyl)-1H-imidazo[4,5-b]pyridin-2-yl)methyl)-1-(oxetan-3-yl)-1H-imidazo[4,5-c]pyridin-2(3H)-one]	1940	>98.3603	–	–
CC(C)CCn1c(Cn2c(=O)n(C3CC3)c3ccccc32)nc2nc(Cl)ccc21 [Compound 13, 3-((5-chloro-1-isopentyl-1H-imidazo[4,5-b]pyridin-2-yl)methyl)-3-cyclopropyl-1H-benzo[d]imidazol-2(3H)-one]	2.3	>9.84	–	–
O=c1n(Cc2nc3nc(Cl)ccc3n2CCCCO)c2cnccc2n1C1CC1 [Compound 14, 3-((5-chloro-1-(4-hydroxybutyl)-1H-imidazo[4,5-b]pyridin-2-yl)methyl)-1-cyclopropyl-1H-imidazo[4,5-c]pyridin-2(3H)-one]	6	>9.84	–	–
COCCCn1c(Cn2c(=O)n(C3CC3)c3ccc(F)cc32)nc2ncccc21 [Compound 15, 1-cyclopropyl-5-fluoro-3-((1-(3-methoxypropyl)-1H-imidazo[4,5-b]pyridin-2-yl)methyl)-1H-benzo[d]imidazol-2(3H)-one]	220	>98.3603	–	–
CC(C)CCn1c(Cn2c(=O)n(C3CC3)c3ccncc32)nc2cc(Br)cnc21 [Compound 16, 3-((6-bromo-3-isopentyl-3H-imidazo[4,5-b]pyridin-2-yl)methyl)-1-cyclopropyl-1H-imidazo[4,5-c]pyridin-2(3H)-one]	8.81	>98.3603	–	–
CC(C)CCn1c(Cn2c(=O)n(C3CC3)c3ccncc32)nc2cc(CN)cnc21 [Compound 17, 3-((6-(aminomethyl)-3-isopentyl-3H-imidazo[4,5-b]pyridine-2-yl)methyl)-1-cyclopropyl-1H-imidazo[4,5-c]pyridin-2(3H)-one]	11.8	>98.3603	–	–
CC(C)CCn1c(Cn2c(=O)n(C3COC3)c3ccncc32)nc2cc(Br)cnc21 [Compound 18, 3-((6-bromo-3-isopentyl-3H-imidazo[4,5-b]pyridin-2-yl)methyl)-1-(oxetan-3-yl)-1H-imidazo[4,5-c]pyridin-2(3H)-one]	17.3	>9.836	–	–
O=c1n(Cc2nc3cc(Br)cnc3n2CCCCO)c2cnccc2n1C1CC1 [Compound 19, 3-((6-bromo-3-(4-hydroxybutyl)-3H-imidazo[4,5-b]pyridin-2-yl)methyl)-1-cyclopropyl-1H-imidazo[4,5-c]pyridin-2(3H)-one]	19.1	>98.3603	–	–
O=c1n(Cc2nc3cc(Br)cnc3n2CCCCO)c2cnccc2n1C1COC1 [Compound 20, 3-((6-bromo-3-(4-hydroxybutyl)-3H-imidazo[4,5-b]pyridin-2-yl)methyl)-1-(oxetan-3-yl)-1H-imidazo[4,5-c]pyridin-2(3H)-one]	36.1	>9.836	–	–
O=c1n(Cc2nc3cc(Cl)cnc3n2CCCCO)c2cnccc2n1C1CC1 [Compound 21, 3-((6-chloro-3-(4-hydroxybutyl)-3H-imidazo[4,5-b]pyridin-2-yl)methyl)-1-cyclopropyl-1H-imidazo[4,5-c]pyridin-2(3H)-one]	54.6	>9.836	–	–
O=c1n(Cc2nc3cc(F)cnc3n2CCCCO)c2cnccc2n1C1CC1 [Compound 22, 1-cyclopropyl-3-((6-fluoro-3-(4-hydroxybutyl)-3H-imidazo[4,5-b]pyridin-2-yl)methyl)-1H-imidazo[4,5-c]pyridin-2(3H)-one]	403	>9.836	–	–
CC(C)CCn1c(Cn2c(=O)n(C3CC3)c3ccncc32)nc2cc(B(O)O)cnc21 [Compound 23, 2-((1-cyclopropyl-2-oxo-1H-imidazo[4,5-c]pyridin-3(2H)-yl)methyl)-3-isopentyl-3H-imidazo[4,5-b]pyridin-6-ylboronic acid]	645	>98.3603	–	–
CC(C)CCn1c(Cn2c(=O)n(C3CC3)c3ccncc32)nc2cccnc21 [Compound 24, 1-cyclopropyl-3-((3-isopentyl-3H-imidazo[4,5-b]pyridin-2-yl)methyl)-1H-imidazo[4,5-c]pyridin-2(3H)-one]	1220	>98.3603	–	–

Structure (SMILES)	EC50 (rgRSV224 virus; [1]) [nM]	TOX-HELA_EC50 (HeLa cells; [2]) [µM]	EC50 (rgRSV224 virus; rgRSV224 in HeLa cells, three days post-virus exposure, GFP expression) [nM]	TOX-HELA_EC50 (HeLa cells) [µM]
CC(C)CCn1c(Cn2c(=O)n(C(C)C)c3ccnc(Cl)c32)nc2cccnc21 [Compound 25, 4-chloro-3-((3-isopentyl-3H-imidazo[4,5-b]pyridin-2-yl)methyl)-1-isopropyl-1H-imidazo[4,5-c]pyridin-2(3H)-one]	8270	>24.5901	–	–
COC(=O)c1cnc2c(c1)nc(Cn1c(=O)n(C3CC3)c3ccncc31)n2CCC(C)C [Compound 26, methyl 2-((1-cyclopropyl-2-oxo-1H-imidazo[4,5-c]pyridin-3(2H)-yl)methyl)-3-isopentyl-3H-imidazo[4,5-b]pyridine-6-carboxylate]	8610	>98.3603	–	–
CC(C)CCn1c(Cn2c(=O)n(C3CC3)c3ccncc32)nc2cc(C#N)cnc21 [Compound 27, 2-((1-cyclopropyl-2-oxo-1H-imidazo[4,5-c]pyridin-3(2H)-yl)methyl)-3-isopentyl-3H-imidazo[4,5-b]pyridine-6-carbonitrile]	34100	>98.3603	–	–
CC(C)CCn1c(Cn2c(=O)n(C3CC3)c3ccncc32)nc2cc(C(=O)O)cnc21 [Compound 28, 2-((1-cyclopropyl-2-oxo-1H-imidazo[4,5-c]pyridin-3(2H)-yl)methyl)-3-isopentyl-3H-imidazo[4,5-b]pyridine-6-carboxylic acid]	> 49200	>49.1802	–	–
CC(C)CCn1c(Cn2c(=O)n(C(C)C)c3ccnc(C#N)c32)nc2cccnc21 [Compound 29, 3-((3-isopentyl-3H-imidazo[4,5-b]pyridin-2-yl)methyl)-1-isopropyl-2-oxo-2,3-dihydro-1H-imidazo[4,5-c]pyridine-4-carbonitrile]	> 98400	>98.3603	–	–
CC(C)CCn1c(Cn2c(=O)n(C3CC3)c3ccccc32)nc2cnccc21 [Compound 31]	5.4	>9.836	–	–
CC(C)CCn1c(Cn2c(=O)n(C3CC3)c3ccc(F)cc32)nc2cnccc21 [Compound 32]	11.3	>9.836	–	–
CC(C)CCn1c(Cn2c(=O)n(C3CC3)c3ccncc32)nc2cnccc21 [Compound 33]	30.4	>98.3603	–	–
CC(C)CCn1c(Cn2c(=O)n(C3CC3)c3ccncc32)nc2ccncc21 [Compound 34]	74	>98.3603	–	–
O=c1n(Cc2nc3cnccc3n2CCCCO)c2cnccc2n1C1CC1 [Compound 35]	–	–	79.5	>98.3603
CC(C)CCn1c(Cn2c(=O)n(C3COC3)c3ccncc32)nc2cnccc21 [Compound 36]	94.9	>9.836	–	–
CN(C)c1nccc2c1nc(Cn1c(=O)n(C3CC3)c3ccncc31)n2CCCCO [Compound 37]	274	>9.836	–	–
O=c1n(Cc2nc3c(Cl)nccc3n2CCCCOCc2ccccc2)c2cnccc2n1C1CC1 [Compound 38, 3-((1-(4-benzyloxy)butyl)-4-chloro-1H-imidazo[4,5-c]pyridin-2-yl)methyl-1-cyclopropyl-1H-imidazo[4,5-c]pyridin-2(3H)-one]	1480	>98.3603	–	–
O=c1n(Cc2nc3nc(Cl)ccc3n2CCCC(F)(F)F)c2cnccc2n1C1CC1 [Compound 39, 3-((5-chloro-1-(4,4,4-trifluorobutyl)-1H-imidazo[4,5-b]pyridin-2-yl)methyl)-1-cyclopropyl-1H-imidazo[4,5-c]pyridin-2(3H)-one]	0.96	>98.3603	–	–
O=c1n(Cc2nc3nc(Cl)ccc3n2CCCCF)c2cnccc2n1C1CC1 [Compound 40, 3-((5-chloro-1-(4-fluorobutyl)-1H-imidazo[4,5-b]pyridin-2-yl)methyl)-1-cyclopropyl-1H-imidazo[4,5-c]pyridin-2(3H)-one]	2	>98.3603	–	–
O=c1n(Cc2nc3ncccc3n2CCCC(F)(F)F)c2cnccc2n1C1CC1 [Compound 41, 1-cyclopropyl-3-((1-(4,4,4-trifluorobutyl)-1H-imidazo[4,5-b]pyridin-2-yl)methyl)-1H-imidazo[4,5-c]pyridin-2(3H)-one]	7.1	>98.3603	–	–
